Test results published in publication PMC13586173, “Synthetic cannabinoid receptor agonists inhibit the cardiac voltage-gated potassium channel hERG” (Acta Pharmacologica Sinica, 2026).
Values joined by “and” are separate entries in the source; they are usually repeats but may differ in a detail not shown here. Identical values can stand only once. “Also recorded” adds a separate entry of the source. Like-named read-outs stand apart in the source and are kept apart here.

Legend:
hERG (KV11.1) = hERG (KV11.1) (Homo sapiens, UniProt Q12809); test: Automated planar patch-clamp (APC, QPatch II 48), voltage-ladder protocol, CHO cells stably expressing human hERG; details: for effect on Gmax of hERG (in words): APC concentration-response, 1.11 to 30 µM; for hERG channel Efficacy (max reduction in Gmax) Gmin: 0 = complete reduction
Sequence of hERG (KV11.1) (Q12809 whole entry): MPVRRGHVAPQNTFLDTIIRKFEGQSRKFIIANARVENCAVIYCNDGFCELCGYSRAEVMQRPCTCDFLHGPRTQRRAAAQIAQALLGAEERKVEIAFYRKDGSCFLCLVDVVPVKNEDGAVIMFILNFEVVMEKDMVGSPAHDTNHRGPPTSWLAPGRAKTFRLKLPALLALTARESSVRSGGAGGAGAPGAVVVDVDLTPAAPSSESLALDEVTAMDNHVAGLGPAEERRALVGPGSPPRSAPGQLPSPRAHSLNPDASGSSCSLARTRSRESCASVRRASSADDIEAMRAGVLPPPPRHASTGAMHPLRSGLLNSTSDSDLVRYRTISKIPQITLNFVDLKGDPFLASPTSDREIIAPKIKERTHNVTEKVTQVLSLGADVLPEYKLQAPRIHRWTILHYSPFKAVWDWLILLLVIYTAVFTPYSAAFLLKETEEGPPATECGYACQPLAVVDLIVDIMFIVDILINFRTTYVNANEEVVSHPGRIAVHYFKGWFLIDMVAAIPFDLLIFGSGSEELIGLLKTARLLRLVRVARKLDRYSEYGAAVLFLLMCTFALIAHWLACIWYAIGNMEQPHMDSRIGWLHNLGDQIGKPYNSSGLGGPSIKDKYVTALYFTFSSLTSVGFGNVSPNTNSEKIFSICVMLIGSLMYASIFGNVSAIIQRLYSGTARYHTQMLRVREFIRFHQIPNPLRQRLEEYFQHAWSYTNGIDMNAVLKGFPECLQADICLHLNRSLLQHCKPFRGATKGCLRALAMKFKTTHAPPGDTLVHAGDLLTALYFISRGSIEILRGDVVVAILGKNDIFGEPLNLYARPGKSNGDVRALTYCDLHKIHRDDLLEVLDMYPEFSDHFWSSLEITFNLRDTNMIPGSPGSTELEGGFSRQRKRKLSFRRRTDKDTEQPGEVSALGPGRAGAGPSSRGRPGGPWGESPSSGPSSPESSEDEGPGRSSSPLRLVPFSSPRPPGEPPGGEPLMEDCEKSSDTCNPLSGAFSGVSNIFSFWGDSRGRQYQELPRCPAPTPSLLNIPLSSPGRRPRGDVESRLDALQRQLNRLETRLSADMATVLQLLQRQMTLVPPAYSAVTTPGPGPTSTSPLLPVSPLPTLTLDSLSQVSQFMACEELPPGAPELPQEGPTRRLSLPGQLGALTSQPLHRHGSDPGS
Source text: To assess the effect of a large set of SCRAs on hERG (see SI Table I and SI Fig. S1 for a list of the 36 included SCRAs and corresponding structures), we used the automated planar patch-clamp (APC) technique on mammalian Chinese hamster ovary (CHO) cells stably expressing human hERG. […] We employed a voltage-ladder protocol to obtain information on SCRA effects on the channel’s voltage dependence of activation (V50) and maximal conductance (Gmax) (both determined from Boltzmann fits of the instantaneous tail currents; see Methods for details).
Stably expressing cell lines “CHO-hERG DUO” (here referred to as hERG; gene: KCNH2) and “CHO-KVLQT1/mink” (here referred to as KV7.1/KCNE1; gene: KCNQ1/KCNE1), (B’SYS GmBH, Witterswil, Switzerland) were used to study whole-cell K^+ currents on a QPatch II 48 APC system (Sophion Bioscience A/S, Ballerup, Denmark). Cell culture and passaging were performed in accordance with standard operating procedures. Cells were harvested in serum-free medium with Detachin^TM (Genlantis, CA, USA) immediately prior to experiments. For MPC on transient cell lines, CHO-K1 CCL-61 cells (ATCC, Manassas, VA, USA) were cultured in Ham’s F-12 medium supplemented with 10% fetal bovine serum (FBS) and 100 U/mL penicillin–100 µg/mL streptomycin (Gibco, Thermo Fisher Scientific, Waltham, MA, USA). Transfection was carried out using JetOPTIMUS® reagent (Polyplus, Strasbourg, France) according to the manufacturer’s protocol. Briefly, 80,000 cells were seeded per well in a 12-well plate and transfected with 300 ng of pcDNA3-GFP plasmid, 700 ng of pcDNA3-hERG plasmid with either the wild-type or mutant channels (S624A, S649A, or Y652A), and […] of JetOPTIMUS. After 8 h, cells were detached and reseeded at a density of 30,000 cells per well onto several poly-D-lysine-coated glass coverslips placed in a 12-well plate. For the CB1 receptor activity assay, the AequoScreen® recombinant Chinese hamster ovary (CHO) K1 cell line, stably expressing the human CB1 receptor (ES-110-A), was used (Revvity, Sollentuna, Sweden).
Automated patch-clamp recordings were performed at 22 °C. Freshly harvested cell suspensions (2–3 million cells/mL) were prepared for experiments by the QPatch II 48 automated cell preparation unit. Cells were centrifuged for 150 s at 150 × g and washed twice with the extracellular recording solution. Cells were handled by the integrated pipetting robot and added to the 48 experiment sites on the planar patch-clamp consumable QPlate. Each experiment site contained an individual pair of recording electrodes and a silicon/glass biochip embedded in the flow channels. Single-cell patch recordings (n = 1 is defined as one single-cell patch) and population patch recordings (up to 10 cells per well, n = 1 is defined as one population patch) were performed for hERG and for KV7.1/KCNE1, respectively. Cells were applied, positioned and sealed to the patch holes by a mild suction protocol; whole-cell access was then achieved by a stronger suction pulse.
The intracellular solution contained (in mM): 100 KCl, 4.3 CaCl2, 1.4 MgCl2, 25/10 KOH/EGTA, 24 KF, 10 HEPES, and 4 Mg-ATP (hERG) or 4 Na-ATP (KV7.1/KCNE1). […] The compounds were pre-diluted in DMSO, and the final concentration of DMSO (0.3%) was equal in all recording solutions to control for vehicle effects. The compounds made no contact with plastics following dilution in extracellular solution.
An overview of experimental conditions is provided in SI Table VII, Square voltage pulses in a voltage ladder protocol were used to study current/voltage (I(V)) relationships. Each voltage protocol was first run three times in the presence of vehicle (extracellular solution supplemented with 0.3% DMSO), the 3rd serving as the baseline. Voltage protocols were repeated in the presence of 4 cumulatively rising concentrations of test compound, followed by application of vehicle for recovery.

human CB1 receptor = molecular target: T1, human CB1 receptor (Homo sapiens, UniProt P21554); test: AequoScreen intracellular calcium release assay, CHO-K1 cells stably expressing CB1; type: cell-based
T1 construct: host or cells: CHO-K1 stably expressing CB1, apoaequorin and Gα16
T1 sequence (P21554 whole entry): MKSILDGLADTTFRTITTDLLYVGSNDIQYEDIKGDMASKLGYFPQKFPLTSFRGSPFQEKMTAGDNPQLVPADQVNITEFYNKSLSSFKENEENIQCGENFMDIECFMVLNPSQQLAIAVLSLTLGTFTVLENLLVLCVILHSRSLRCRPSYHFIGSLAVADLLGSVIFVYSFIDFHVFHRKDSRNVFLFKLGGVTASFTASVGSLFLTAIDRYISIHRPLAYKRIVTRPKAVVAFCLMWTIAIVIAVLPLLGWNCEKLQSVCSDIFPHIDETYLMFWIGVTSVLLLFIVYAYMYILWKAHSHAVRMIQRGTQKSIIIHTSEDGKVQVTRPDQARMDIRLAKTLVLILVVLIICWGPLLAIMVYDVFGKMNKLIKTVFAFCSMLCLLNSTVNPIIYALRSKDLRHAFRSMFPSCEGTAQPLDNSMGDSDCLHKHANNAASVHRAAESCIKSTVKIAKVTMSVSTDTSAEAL

KV7.1/KCNE1 = KV7.1/KCNE1 (Homo sapiens, UniProt P51787); test: Automated patch-clamp (APC, population patch), CHO cells stably expressing human KV7.1/KCNE1; type: cell-based; details: for KV7.1/KCNE1 channel Efficacy (max reduction in Gmax) Gmin, marked *: * Greatest efficacy achieved with a concentration between 10 and 30 µM (no fit); for KV7.1/KCNE1 channel Efficacy (max reduction in Gmax) Gmin: 1 = no reduction of Gmax, 0 = complete reduction
Sequence of KV7.1/KCNE1 (P51787 whole entry): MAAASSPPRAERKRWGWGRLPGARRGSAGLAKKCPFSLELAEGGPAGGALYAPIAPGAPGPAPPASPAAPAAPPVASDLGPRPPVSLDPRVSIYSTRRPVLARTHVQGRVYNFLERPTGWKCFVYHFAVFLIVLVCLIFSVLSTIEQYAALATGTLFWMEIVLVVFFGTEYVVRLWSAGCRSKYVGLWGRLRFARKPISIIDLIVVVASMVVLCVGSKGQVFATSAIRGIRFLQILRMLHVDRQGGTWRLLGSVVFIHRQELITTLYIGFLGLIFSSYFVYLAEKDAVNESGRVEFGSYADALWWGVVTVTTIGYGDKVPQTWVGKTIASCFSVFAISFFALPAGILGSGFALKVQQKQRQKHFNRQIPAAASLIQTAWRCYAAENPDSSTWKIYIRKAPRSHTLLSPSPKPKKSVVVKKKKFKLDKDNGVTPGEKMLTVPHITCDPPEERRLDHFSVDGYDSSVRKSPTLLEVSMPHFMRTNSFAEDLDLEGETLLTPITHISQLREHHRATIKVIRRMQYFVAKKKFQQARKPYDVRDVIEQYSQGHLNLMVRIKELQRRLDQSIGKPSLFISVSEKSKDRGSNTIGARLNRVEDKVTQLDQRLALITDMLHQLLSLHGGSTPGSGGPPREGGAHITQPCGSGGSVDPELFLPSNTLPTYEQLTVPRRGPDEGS
Experimental: Both hERG and KV7.1/KCNE1 contribute to cardiomyocyte repolarization (Fig. 1g). Inhibition of KV7.1/KCNE1 alone can be proarrhythmic. Moreover, under conditions with impaired hERG function, upregulation of KV7.1/KCNE1 has been proposed to partially compensate for the loss of hERG [38, 39]. […] To assess if SCRAs also affect KV7.1/KCNE1, we used mammalian CHO cells stably expressing human KV7.1/KCNE1. […] At 10 µM, 7 of the SCRAs caused a significant positive shift in V50 (Fig. 5e), with the largest shift induced by MDMB-[…] (ΔV50 = +10.3 ± 1.6 mV).
Automated patch-clamp recordings were performed at 22 °C.
For the KV7.1/KCNE1 voltage ladder protocol (SI Table VII) the solutions were present for 60 s before recording started. KV7.1/KCNE1 cells were kept at a holding voltage of −90 mV, with brief hyperpolarizing steps to −100 mV for 540 ms (to calculate ohmic leakage). […] The time between compound application and the first voltage protocol was 60 s. Time between sweeps was 15 s. The voltage ladder protocol was executed every 220 s.
For Gmax (rel.), N was set to –1. For ΔV50, N was set to 1.

[1] = normalized to maximum of JWH-018, n ≥ 3 (JWH-030 n = 2)
[2] = normalized to median EC50 of JWH-018, n ≥ 3 (JWH-030 n = 2), read-out: CB1 receptor Potency EC50
[3] = best fit, 1 = no reduction of Gmax, APC, 22 °C
[4] = read-out: hERG channel Potency IC50 (Gmax reduction), APC, 22 °C, best fit
[5] = CB1 receptor Potency EC50, normalized to median EC50 of JWH-018, n ≥ 3 (JWH-030 n = 2)
[6] = APC, best fit, read-out: KV7.1/KCNE1 channel Potency IC50 (Gmax reduction)

SMILES | CB1 receptor Efficacy Emax (human CB1 receptor; [1]) | EC50 (human CB1 receptor; [2]) | KV7.1/KCNE1 channel Efficacy (max reduction in Gmax) Gmin, marked * (KV7.1/KCNE1) | hERG channel Efficacy (max reduction in Gmax) Gmin (hERG (KV11.1); [3]) | IC50 (hERG (KV11.1); [4]) | IC50 (hERG (KV11.1)) | EC50 (human CB1 receptor; [5]) | KV7.1/KCNE1 channel Efficacy (max reduction in Gmax) Gmin (KV7.1/KCNE1; best fit) | other results
CCCCCn1nc(C(=O)NC23CC4CC(CC(C4)C2)C3)c2ccccc21 [APINACA] | 108 % JWH-018 | 30.4 nM | 0.88 |  |  |  |  |  | hERG channel Efficacy (max reduction in Gmax) Gmin, marked * (hERG (KV11.1); * Greatest efficacy achieved with a concentration between 10 and 30 µM (no fit), 1 = no reduction of Gmax): 0.90; effect on Gmax of hERG (in words) (hERG (KV11.1)): non-inhibitor
C=CCCCn1nc(C(=O)N[C@H](C(=O)OC)C(C)(C)C)c2ccccc21 [MDMB-4en-PINACA] | 109 % JWH-018 | 16.7 nM | 0.57 | 0.27 | 14600 nM |  |  |  | 
CCCCCn1cc(C(=O)c2cccc3ccccc23)c2ccccc21 [JWH-018] | 100 % JWH-018 |  | 1.01 | 0.57 |  | 17300 nM | 35 nM |  | EC50 (human CB1 receptor; median CB1 EC50 value, median from 139 independent experiments run over many years): 35 nM; EC50 (human CB1 receptor; variability of CB1 EC50 over time, range over 139 independent experiments): 13.7 to 51.9 nM
CCCCn1nc(C(=O)NC(C(N)=O)C(C)(C)C)c2cc(Br)ccc21 (centres unmarked) [ADB-5'Br-BUTINACA] | 110 % JWH-018 | 18 nM | 0.80 | 0.36 | 40100 nM |  |  |  | 
O=C(c1cccc2ccccc12)c1nn(CCCCCF)c2ccccc12 [THJ-2201] | 92.8 % JWH-018 | 45.6 nM |  | 0.73 | 2040 nM |  |  | 0.59 | effect on KV7.1/KCNE1 (in words) (KV7.1/KCNE1; APC): well-defined concentration–response relationships for both effects; IC50 (KV7.1/KCNE1; [6]): 4700 nM
O=C(N/N=C1\C(=O)N(CCCCCF)c2ccccc21)c1ccccc1 [5F-BZO-POXIZID] | 113 % JWH-018 |  | 0.83 | 0.29 |  | 900 nM | 193 nM |  | effect on Gmax of hERG (in words) (hERG (KV11.1)): concentration-dependent inhibitory effects on Gmax; also recorded: prominent inhibitory Gmax effects; Gmax effect on hERG versus KV7.1/KCNE1 (in words) (KV7.1/KCNE1; 10 µM, both channels by APC): effects only on hERG
CC(C)[C@H](NC(=O)c1nn(Cc2ccc(F)cc2)c2ccccc12)C(N)=O [AB-FUBINACA] | 108 % JWH-018 | 8.94 nM |  | 0.00 | 30400 nM |  |  | 0.15 | IC50 (KV7.1/KCNE1; [6]): 40800 nM
COC(=O)C(NC(=O)c1nn(CC2CCCCC2)c2ccccc12)C(C)(C)C (centres unmarked) [MDMB-[…]] | 106 % JWH-018 |  | 0.52 | 0.60 |  | 12400 nM | 1.4 nM |  | ΔV50 of KV7.1/KCNE1 (KV7.1/KCNE1; 10 µM): +10.3 ± 1.6 mV
CC(C)[C@H](NC(=O)c1cn(CC2CCCCC2)c2ccccc12)C(N)=O [AB-CHMICA] | 110 % JWH-018 | 20.1 nM |  | 0.64 | 8200 nM |  |  | 0.46 | IC50 (KV7.1/KCNE1; [6]): 16200 nM
COC(=O)[C@@H](NC(=O)c1cn(CC2CCCCC2)c2ccccc12)C(C)C [MMB-CHMICA] | 109 % JWH-018 | 8.76 nM |  | 0.75 | 2600 nM |  |  | 0.83 | 
CC(C)(NC(=O)c1nn(CCCCCF)c2ccccc12)c1ccccc1 [5F-Cumyl-PINACA] | 112 % JWH-018 |  |  | 0.00 |  | 15500 nM | 2.23 nM and 2.2 nM | 0.13 | IC50 (KV7.1/KCNE1): 43500 nM; effect on KV7.1/KCNE1 (in words) (KV7.1/KCNE1; APC): well-defined concentration–response relationships for both effects
CC(C)(C)[C@H](NC(=O)c1nn(CC2CCCCC2)c2ccccc12)C(N)=O |  |  | 0.93 | 0.13 | 11300 nM |  |  |  | CB1 receptor Efficacy Emax (human CB1 receptor): 107 % JWH-018; EC50 (human CB1 receptor; read-out: CB1 receptor Potency EC50): 3.87 nM
